Test results taken from patent publication US8148391B2 (Cephalon, Inc., priority 2006, dated 2012).
Read-outs that look alike come from different tables or passages of the source.

Legend:
[1] = target: T1, baculovirus-expressed ALK (Homo sapiens, UniProt Q9UM73); assay: ALK Kinase Assay (ELISA-type, time-resolved fluorescence); assay type: biochemical
T1 construct: host or cells: baculovirus expression system
Outline: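 Wells were coated with phospholipase C-γ at 10 μg/mL in Tris-buffered saline. Adding 30 ng/ml enzyme started the reaction, which ran at 37° C for 15 minutes before Eu-N1 PT66 antibody detection. Percent inhibition versus log10 concentration gave IC50 by variable-slope fit.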

[2] = target: T2, c-Met (cytoplasmic domain) (Homo sapiens, UniProt P08581); assay: c-Met Kinase Assay (same methods as for ALK, with modifications); assay type: biochemical
T2 construct: 10 ng/mL c-Met (cytoplasmic domain, Invitrogen Corporation #PV3143); purchased Invitrogen Corporation PV3143
Outline: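 IC50 values were fitted by variable-slope sigmoidal regression of percent inhibition against log compound concentration. Phosphorylation was read with Eu-N1 PT66 antibody after a 15 min, 37 °C reaction. The reaction was initiated with 10 ng/mL c-Met cytoplasmic domain on wells coated with 10 μg/mL PLC-γ in TBS.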

[3] = 1 μM ATP (Km level), read-out: ALK Activity (ALK Kinase Inhibition, IC50)
[4] = 1 μM ATP (Km level), read-out: cMet Activity (c-Met Kinase Inhibition, IC50)
[5] = ALK kinase inhibition, 1 μM ATP (Km level), read-out: ALK Activity
[6] = c-Met kinase inhibition, 1 μM ATP (Km level), read-out: cMet Activity
[7] = ALK kinase inhibition, 1 μM ATP, read-out: ALK Activity
[8] = c-Met kinase inhibition, 1 μM ATP, read-out: cMet Activity
[9] = 1 μM ATP (Km level), 30 ng/ml ALK, 37° C., 15 minutes, read-out: ALK Activity (ALK kinase inhibition, IC50 class)
[10] = 1 μM ATP (Km level), 10 ng/mL c-Met, read-out: cMet Activity (c-Met kinase inhibition, IC50 class)

T2 sequence (P08581 956-1390 limits assumed): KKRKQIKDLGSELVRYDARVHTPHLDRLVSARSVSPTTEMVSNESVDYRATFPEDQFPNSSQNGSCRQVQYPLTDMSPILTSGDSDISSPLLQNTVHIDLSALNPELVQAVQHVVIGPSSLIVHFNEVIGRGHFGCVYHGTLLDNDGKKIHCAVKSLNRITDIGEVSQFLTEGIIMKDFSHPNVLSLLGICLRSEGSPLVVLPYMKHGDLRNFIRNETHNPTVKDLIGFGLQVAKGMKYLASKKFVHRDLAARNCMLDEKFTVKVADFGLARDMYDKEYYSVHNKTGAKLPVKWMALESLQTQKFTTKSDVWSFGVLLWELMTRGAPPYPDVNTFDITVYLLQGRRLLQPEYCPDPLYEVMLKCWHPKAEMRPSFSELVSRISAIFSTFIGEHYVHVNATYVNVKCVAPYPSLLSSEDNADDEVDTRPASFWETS
T1 sequence (Q9UM73 19-1620): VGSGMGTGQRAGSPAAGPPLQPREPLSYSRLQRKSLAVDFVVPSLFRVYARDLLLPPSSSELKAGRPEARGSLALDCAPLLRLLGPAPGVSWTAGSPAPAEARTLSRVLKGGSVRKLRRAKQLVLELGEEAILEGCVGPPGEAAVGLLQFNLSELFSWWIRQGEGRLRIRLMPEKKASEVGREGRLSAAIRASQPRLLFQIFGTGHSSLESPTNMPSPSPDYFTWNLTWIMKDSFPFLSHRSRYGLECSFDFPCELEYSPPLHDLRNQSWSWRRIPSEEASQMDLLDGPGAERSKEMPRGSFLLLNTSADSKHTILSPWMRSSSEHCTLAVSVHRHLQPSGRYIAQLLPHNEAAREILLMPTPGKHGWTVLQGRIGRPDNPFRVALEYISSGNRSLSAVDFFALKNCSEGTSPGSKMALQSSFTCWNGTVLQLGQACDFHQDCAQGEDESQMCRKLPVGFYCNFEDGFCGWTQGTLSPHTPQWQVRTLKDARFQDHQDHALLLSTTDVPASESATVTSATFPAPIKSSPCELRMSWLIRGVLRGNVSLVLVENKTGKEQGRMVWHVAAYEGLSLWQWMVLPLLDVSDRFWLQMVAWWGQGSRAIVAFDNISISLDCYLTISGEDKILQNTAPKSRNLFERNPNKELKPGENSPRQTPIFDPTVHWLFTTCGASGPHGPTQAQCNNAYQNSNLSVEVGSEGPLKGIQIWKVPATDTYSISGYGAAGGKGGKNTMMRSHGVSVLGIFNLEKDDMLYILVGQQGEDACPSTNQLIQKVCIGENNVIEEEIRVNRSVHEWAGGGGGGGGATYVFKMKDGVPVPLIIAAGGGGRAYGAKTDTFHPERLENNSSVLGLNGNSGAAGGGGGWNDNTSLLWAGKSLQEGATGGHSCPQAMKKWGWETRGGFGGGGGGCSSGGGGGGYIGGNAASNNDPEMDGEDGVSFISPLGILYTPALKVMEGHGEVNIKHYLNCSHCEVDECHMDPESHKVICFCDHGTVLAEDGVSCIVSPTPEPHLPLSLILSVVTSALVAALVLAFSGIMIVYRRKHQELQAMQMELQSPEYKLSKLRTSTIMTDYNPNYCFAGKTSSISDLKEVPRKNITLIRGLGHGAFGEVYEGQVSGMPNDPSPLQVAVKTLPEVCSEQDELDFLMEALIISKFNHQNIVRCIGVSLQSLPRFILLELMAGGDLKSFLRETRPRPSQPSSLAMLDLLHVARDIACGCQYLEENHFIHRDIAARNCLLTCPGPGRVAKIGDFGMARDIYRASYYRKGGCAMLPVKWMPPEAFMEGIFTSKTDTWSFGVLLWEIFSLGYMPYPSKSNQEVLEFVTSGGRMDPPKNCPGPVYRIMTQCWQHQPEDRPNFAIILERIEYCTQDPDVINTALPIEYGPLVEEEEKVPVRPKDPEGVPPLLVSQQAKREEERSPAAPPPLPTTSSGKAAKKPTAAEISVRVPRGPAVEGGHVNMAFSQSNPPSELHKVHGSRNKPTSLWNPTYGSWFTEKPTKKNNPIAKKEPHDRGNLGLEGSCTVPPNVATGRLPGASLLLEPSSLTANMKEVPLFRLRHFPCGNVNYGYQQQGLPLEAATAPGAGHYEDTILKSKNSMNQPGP

| SMILES | IC50 [1, 3] | IC50 [2, 4] | IC50 [1, 7] | IC50 [2, 8] | further results |
| --- | --- | --- | --- | --- | --- |
| CC1(C)CCCOc2c(Nc3ncc(Cl)c(Nc4ccccc4-n4cccn4)n3)cccc21 [Example 885, 5-Chloro-N*2*-(5,5-dimethyl-2,3,4,5-tetrahydro-benzo[b]oxepin-9-yl)-N*4*-(2-pyrazol-1-yl-phenyl)-pyrimidine-2,4-diamine] | 100 to 1000 nM | > 10000 nM |  |  |  |
| COCCN1CCc2ccc(Nc3ncc(Cl)c(NCCNS(C)(=O)=O)n3)cc2CC1 [Example 299, N-(2-{5-Chloro-2-[3-(2-methoxy-ethyl)-2,3,4,5-tetrahydro-1H-benzo[d]azepin-7-ylamino]-pyrimidin-4-ylamino}-ethyl)-methanesulfonamide] |  |  |  |  | IC50 [1, 5]: 100 to 1000 nM; IC50 [2, 6]: 1000 to 10000 nM |
| COCCN1C(=O)CCCc2c1ccc(Nc1ncc(Cl)c(Nc3ccc(N4CCOCC4)cc3OC)n1)c2OC [Example 127, 7-[5-Chloro-4-(2-methoxy-4-morpholin-4-yl-phenylamino)-pyrimidin-2-ylamino]-6-methoxy-1-(2-methoxy-ethyl)-1,3,4,5-tetrahydro-benzo[b]azepin-2-one] |  |  |  |  | IC50 [1, 5]: < 100 nM; IC50 [2, 6]: > 10000 nM |
| CCOC(=O)N1CCCOc2cc(Nc3ncc(Cl)c(Nc4ccsc4C(=O)NC)n3)ccc21 [Example 1418, 3-[5-Chloro-4-(2-methylcarbamoyl-thiophen-3-ylamino)-pyrimidin-2-ylamino]-7,8-dihydro-6H-5-oxa-9-aza-benzocycloheptene-9-carboxylic acid ethyl ester] |  |  |  |  | IC50 [1, 9]: 100 to 1000 nM; IC50 [2, 10]: 100 to 1000 nM |
| COc1ccc(Nc2nc(Nc3cc4c(cc3OC)CCN(CC(=O)N(C)C)CC4)ncc2Cl)c(N2CCOCC2)c1 [Example 829, 2-{7-[5-Chloro-4-(4-methoxy-2-morpholin-4-yl-phenylamino)-pyrimidin-2-ylamino]-8-methoxy-1,2,4,5-tetrahydro-benzo[d]azepin-3-yl}-N,N-dimethyl-acetamide] | < 100 nM | > 10000 nM |  |  |  |
| CN1CCN(C)c2c(Nc3ncc(Cl)c(N[C@@H]4CCCC[C@H]4NS(C)(=O)=O)n3)cccc2C1=O [Example 542, N-{(1R,2R)-2-[5-Chloro-2-(1,4-dimethyl-5-oxo-2,3,4,5-tetrahydro-1H-benzo[e][1,4]diazepin-9-ylamino)-pyrimidin-4-ylamino]-cyclohexyl} methanesulfonamide] | < 100 nM | > 10000 nM |  |  |  |
| CCN1CC2CC1CN2c1ccc(Nc2nc(Nc3cc4c(cc3OC)CCN(CC(=O)N(C)C)CC4)ncc2Cl)c(OC)c1 (centres unmarked) [Example 795, 2-(7-{5-Chloro-4-[4-(5-ethyl-2,5-diaza-bicyclo[2.2.1]hept-2-yl)-2-methoxy-phenylamino]-pyrimidin-2-ylamino}-8-methoxy-1,2,4,5-tetrahydro-benzo[d]azepin-3-yl)-N,N-dimethyl-acetamide] | < 100 nM | 1000 to 10000 nM |  |  |  |
| CCN1C(=O)C(NC(=O)C(F)(F)F)CCc2c1ccc(Nc1ncc(Cl)c(N[C@H]3[C@@H](C(N)=O)[C@@H]4C=C[C@H]3C4)n1)c2OC (stereo partly drawn) [Example 1330, (1S,2S,3R,4R)-3-{5-Chloro-2-[1-ethyl-6-methoxy-2-oxo-3-(2,2,2-trifluoro-acetylamino)-2,3,4,5-tetrahydro-1H-benzo[b]azepin-7-ylamino]-pyrimidin-4-ylamino}-bicyclo[2.2.1]hept-5-ene-2-carboxylic acid amide] |  |  |  |  | IC50 [1, 9]: < 100 nM; IC50 [2, 10]: > 10000 nM |
| COc1ccc(Nc2nc(Nc3cc4c(cc3OC)CCN(CC(=O)N(C)C)CC4)ncc2Cl)c(S(=O)(=O)C(C)C)c1 [Example 1162, 2-(7-{5-Chloro-4-[4-methoxy-2-(propane-2-sulfonyl)-phenylamino]-pyrimidin-2-ylamino}-8-methoxy-1,2,4,5-tetrahydro-benzo[d]azepin-3-yl)-N,N-dimethyl-acetamide] |  |  |  |  | IC50 [1, 9]: < 100 nM; IC50 [2, 10]: > 10000 nM |
| CCN1CCc2ccc(Nc3ncc(Cl)c(NCCC(=O)NC)n3)cc2CC1 [Example 211, 3-[5-Chloro-2-(3-ethyl-2,3,4,5-tetrahydro-1H-benzo[d]azepin-7-ylamino)-pyrimidin-4-ylamino]-N-methyl-propionamide] |  |  |  |  | IC50 [1, 5]: 100 to 1000 nM; IC50 [2, 6]: 1000 to 10000 nM |
| COc1cc2c(cc1Nc1ncc(Cl)c(NC3(CC(N)=O)CCCCC3)n1)CCN(CC(=O)N(C)C)CC2 [Example 847, 2-{1-[5-Chloro-2-(3-dimethylcarbamoylmethyl-8-methoxy-2,3,4,5-tetrahydro-1H-benzo[d]azepin-7-ylamino)-pyrimidin-4-ylamino]-cyclohexyl}-acetamide] | 100 to 1000 nM | > 10000 nM |  |  |  |
| COc1cccnc1-c1ccccc1Nc1nc(Nc2ccc3c(c2)C(C)(C)CCC(=O)N3)ncc1Cl [Example 989, 7-{5-Chloro-4-[2-(3-methoxy-pyridin-2-yl)-phenylamino]-pyrimidin-2-ylamino}-5,5-dimethyl-1,3,4,5-tetrahydro-benzo[b]azepin-2-one] | < 100 nM | 100 to 1000 nM |  |  |  |

More lines, main results first:

| IC50 [1, 3] | IC50 [2, 4] | IC50 [1, 7] | IC50 [2, 8] | SMILES | further results |
| --- | --- | --- | --- | --- | --- |
|  |  | < 100 nM | > 10000 nM | COc1cc2c(cc1Nc1ncc(Cl)c(N[C@@H]3CCCC[C@H]3NS(C)(=O)=O)n1)NC(=O)CNC2 [Example 1655, N-{(1R,2R)-2-[5-Chloro-2-(7-methoxy-2-oxo-2,3,4,5-tetrahydro-1H-benzo[e][1,4]diazepin-8-ylamino)-pyrimidin-4-ylamino]-cyclohexyl}-methanesulfonamide] |  |
|  |  | 100 to 1000 nM | 1000 to 10000 nM | CN1C(=O)OCCc2cc(Nc3ncc(Cl)c(Nc4cccc5c4OC(F)(F)O5)n3)ccc21 [Example 1768, 2-[5-Chloro-4-(2,2-difluoro-benzo[1,3]dioxol-4-ylamino)-pyrimidin-2-ylamino]-5-methyl-8,9-dihydro-5H-7-oxa-5-aza-benzocyclohepten-6-one] |  |
|  |  | 1000 to 10000 nM | 1000 to 10000 nM | O=C1CCCc2ccc(Nc3ncc(Cl)c(Nc4c(F)cccc4C(=O)NCC4CC4)n3)cc2N1 [Example 1712, 2-[5-Chloro-2-(2-oxo-2,3,4,5-tetrahydro-1H-benzo[b]azepin-8-ylamino)-pyrimidin-4-ylamino]-N-cyclopropylmethyl-3-fluoro-benzamide] |  |
|  |  | < 100 nM | 100 to 1000 nM | COc1cc2c(cc1Nc1ncc(Cl)c(Nc3ccccc3S(=O)(=O)N3CCC(O)C3)n1)CCN(CCO)CC2 (centres unmarked) [Example 1551, 1-(2-{5-Chloro-2-[3-(2-hydroxy-ethyl)-8-methoxy-2,3,4,5-tetrahydro-1H-3-benzazepin-7-ylamino]-pyrimidin-4-ylamino}-benzenesulfonyl)-pyrrolidin-3-ol] |  |
|  |  | 1000 to 10000 nM | 1000 to 10000 nM | CC(=O)NCCOc1cccc(F)c1Nc1nc(Nc2ccc3c(c2)CCOC(=O)N3C)ncc1Cl [Example 1782, N-(2-{2-[5-Chloro-2-(5-methyl-6-oxo-5,6,8,9-tetrahydro-7-oxa-5-aza-benzocyclohepten-2-ylamino)-pyrimidin-4-ylamino]-3-fluoro-phenoxy}-ethyl)-acetamide] |  |
|  |  | < 100 nM | < 100 nM | CNC(=O)c1cccc(F)c1Nc1nc(Nc2ccc3c(c2)N(C(C)C)CCCO3)ncc1Cl [Example 1734, 2-[5-Chloro-2-(9-isopropyl-6,7,8,9-tetrahydro-5-oxa-9-aza-benzocyclohepten-2-ylamino)-pyrimidin-4-ylamino]-3-fluoro-N-methyl-benzamide] |  |
|  |  | < 100 nM | < 100 nM | Cc1n[nH]c(-c2ccccc2Nc2nc(Nc3ccc4c(c3)CCOC(=O)N4C)ncc2Cl)n1 [Example 1788, 2-{5-Chloro-4-[2-(5-methyl-2H-[1,2,4]triazol-3-yl)-phenylamino]-pyrimidin-2-ylamino}-5-methyl-8,9-dihydro-5H-7-oxa-5-aza-benzocyclohepten-6-one] |  |
